Reference: patent US9765087B2, “Benzimidazole derivatives” (ENANTA PHARMACEUTICALS, INC., priority 2009, dated 2017)
pEC50: −log10 of the molar value. Like-named read-outs stand apart in the source and are kept apart here.

Columns and labels:
HCV 1b genotype replicon = experiment: HCV replicon assay (qRT-PCR or luciferase), genotype 1b; format: cell-based; details: Hepatitis C virus
Procedure, shortened: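 Genotype 1b subgenomic replicon Huh-luc/neo-ET cells (7,000/well) treated with compound for 72 h at 37 °C, 0.2% DMSO final; replication read by firefly luciferase. EC50 alternatively from qRT-PCR of HCV RNA normalized to GAPDH; cytotoxicity by MTS.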

HCV 1a genotype replicon = experiment: HCV replicon assay (qRT-PCR or luciferase), genotype 1a; format: cell-based; details: Hepatitis C virus
Procedure, shortened: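 Bartenschlager HCV replicon Huh cells; EC50 from HCV RNA by TaqMan qRT-PCR normalised to GAPDH, cytotoxicity by MTS. Combination studies in Huh-luc/neo-ET cells seeded at 7,000/well, compounds in 6-point two-fold dilutions, 0.2% DMSO final, 72 h at 37 °C, luciferase read-out.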

[1] = Table 12, numeric values, read-out: 1b EC50
[2] = Table 12, range class, read-out: 1a EC50 Range
[3] = Table 12, range class, read-out: 1b EC50 Range
[4] = Table 12, numeric values, read-out: 1a EC50

SMILES | pEC50 (HCV 1b genotype replicon; [1]) | pEC50 (HCV 1a genotype replicon; [2]) | pEC50 (HCV 1b genotype replicon; [3]) | pEC50 (HCV 1a genotype replicon; [4]) | pEC50 (HCV 1a genotype replicon; read-out: 1a EC50 Range, Table 12, range class)
COC(=O)N[C@H](C(=O)N1CC2(CC2)C[C@H]1c1nc(-c2ccc(C#Cc3ccc4[nH]c([C@@H]5C[C@@]6(CCOC6)CN5C(=O)[C@@H](NC(=O)OC)C(C)C)nc4c3)cc2)c[nH]1)C(C)C [Example 631] | 11.10 | > 9.00 |  |  | 
COC(=O)N[C@H](C(=O)N1CCC[C@H]1c1nc(-c2ccc3cc(-c4ccc5[nH]c([C@@H]6CC7(CC7)CN6C(=O)[C@@H](NC(=O)OC)C(C)C)nc5c4)ccc3c2)c[nH]1)C(C)C [Example 692] | 10.96 | > 9.00 |  |  | 
COC(=O)N[C@H](C(=O)N1CC2(CC2)C[C@H]1c1ncc(-c2ccc(C#Cc3ccc4nc([C@@H]5C[C@]6(CCOC6)CN5C(=O)[C@@H](NC(=O)OC)C(C)C)[nH]c4c3)cc2)[nH]1)C(C)C [Example 565] | 10.96 | > 9.00 |  |  | 
COC(=O)N[C@@H](CCCNC(N)=O)C(=O)N1CC2(CC2)C[C@H]1c1nc(-c2ccc(C#Cc3ccc4[nH]c([C@@H]5CC6(CC6)CN5C(=O)[C@@H](NC(=O)OC)C(C)C)nc4c3)cc2)c[nH]1 [Example 616] | 9.31 | > 9.00 |  |  | 
COC(=O)N[C@H](C(=O)N1CCC[C@H]1c1nc(-c2ccc(C#Cc3ccc4[nH]c([C@@H]5C[C@]6(CCOC6)CN5C(=O)[C@@H](NC(=O)OC)C(C)C)nc4c3)cc2)c[nH]1)C(C)C [Example 564] | 11.10 | > 9.00 |  |  | 
COC(=O)N[C@H](C(=O)N1CC2(CC2)C[C@H]1c1nc(-c2ccc(C#Cc3ccc4[nH]c([C@@H]5C[C@@]6(CCCO6)CN5C(=O)[C@@H](NC(=O)OC)C(C)C)nc4c3)cc2)c[nH]1)C(C)C [Example 555] | 11.15 | > 9.00 |  |  | 
COC(=O)N[C@H](C(=O)N1CCC[C@H]1c1nc(-c2ccc3nc(-c4ccc5[nH]c([C@@H]6CC7(CC7)CN6C(=O)[C@@H](NC(=O)OC)C(C)C)nc5c4)ncc3c2)c[nH]1)C(C)C [Example 644] | 10.35 | > 9.00 |  |  | 
COC(=O)N[C@@H](COC(N)=O)C(=O)N1CCC[C@H]1c1ncc(-c2ccc(C#Cc3ccc4nc([C@@H]5CC6(CC6)CN5C(=O)[C@@H](NC(=O)OC)C(C)C)[nH]c4c3)cc2)[nH]1 [Example 552] |  | > 9.00 | > 9.00 |  | 
COC(=O)N[C@H](C(=O)N1C[C@H](F)C[C@H]1c1nc(-c2ccc(C#Cc3ccc4[nH]c([C@@H]5C[C@@]6(CCCO6)CN5C(=O)[C@@H](NC(=O)OC)C(C)C)nc4c3)cc2)c[nH]1)C(C)C [Example 629] | 10.77 |  |  | 9.74 | 
COC(=O)N[C@H](C(=O)N1CCC[C@H]1c1nc(-c2ccc(C#Cc3ccc4[nH]c([C@@H]5CC6(CCOCC6)CN5C(=O)[C@@H](NC(=O)OC)C(C)C)nc4c3)cc2)c[nH]1)C(C)C [Example 568] | 11.05 | > 9.00 |  |  | 
COC(=O)N[C@H](C(=O)N1C[C@]2(CCCO2)C[C@H]1c1nc(-c2ccc(C#Cc3ccc4[nH]c([C@@H]5CC6(CC6)CN5C(=O)[C@@H](NC(=O)OC)C(C)C)nc4c3)cc2)c[nH]1)C(C)C [Example 546] | 10.92 | > 9.00 |  |  | 
COC(=O)N[C@H](C(=O)N1C[C@](C)(F)C[C@H]1c1nc(-c2ccc(C#Cc3ccc4[nH]c([C@@H]5C[C@@]6(CCCO6)CN5C(=O)[C@@H](NC(=O)OC)C(C)C)nc4c3)cc2)c[nH]1)C(C)C [Example 567] | 10.82 | > 9.00 |  |  | 
COC(=O)N[C@H](C(=O)N1CCC[C@H]1c1ncc(-c2ccc(C#Cc3ccc4nc([C@@H]5C[C@@]6(CCCOC6)CN5C(=O)[C@@H](NC(=O)OC)C(C)C)[nH]c4c3)cc2)[nH]1)C(C)C [Example 569] | 11.05 | > 9.00 |  |  | 
COC(=O)N[C@H](C(=O)N1C[C@@]2(C[C@H]1c1nc(-c3ccc(C#Cc4ccc5[nH]c([C@@H]6CC7(CC7)CN6C(=O)[C@@H](NC(=O)OC)C(C)C)nc5c4)cc3)c[nH]1)CC2(F)F)C(C)C [Example 687] | 11.00 | > 9.00 |  |  | 
COC(=O)N[C@H](C(=O)N1CC2(CC2)C[C@H]1c1ncc(-c2ccc(C#Cc3ccc4nc([C@@H]5CC6(CC6)CN5C(=O)[C@H](NC(=O)OC)c5ccc(F)cc5)[nH]c4c3)cc2)[nH]1)C(C)C [Example 580] | 11.15 | > 9.00 |  |  | 
COC(=O)N[C@H](C(=O)N1CC2(CC2)C[C@H]1c1nc2ccc(C#Cc3ccc(-c4cnc([C@@H]5C[C@H]6C[C@H]6N5C(=O)[C@@H](NC(=O)OC)C(C)C)[nH]4)cc3)cc2[nH]1)C(C)C [Example 637] | 11.40 | > 9.00 |  |  | 
COC(=O)N[C@H](C(=O)N1CCC[C@H]1c1ncc(-c2ccc(C#Cc3ccc4nc([C@@H]5CC6(CC6)CN5C(=O)[C@H](NC(=O)OC)c5ccccc5)[nH]c4c3)cc2)[nH]1)C(C)C [Example 646] | 11.30 |  |  |  | > 9.00
COC(=O)N[C@@H](CF)C(=O)N1CC2(CC2)C[C@H]1c1nc(-c2ccc(C#Cc3ccc4[nH]c([C@@H]5CC6(CC6)CN5C(=O)[C@@H](NC(=O)OC)C(C)C)nc4c3)cc2)c[nH]1 [Example 615] | 11.30 | > 9.00 |  |  | 
COC(=O)N[C@H](C(=O)N1CC(F)(F)C[C@H]1c1nc(-c2ccc(C#Cc3ccc4[nH]c([C@@H]5C[C@@]6(CCCO6)CN5C(=O)[C@@H](NC(=O)OC)C(C)C)nc4c3)cc2)c[nH]1)C(C)C [Example 627] | 11.00 | > 9.00 |  |  | 
[2H]c1c([2H])c(-c2c[nH]c([C@@H]3CC4(CC4)CN3C(=O)[C@@H](NC(=O)OC)C(C)C)n2)c([2H])c([2H])c1C#Cc1ccc2[nH]c([C@@H]3CC4(CC4)CN3C(=O)[C@@H](NC(=O)OC)C(C)C)nc2c1 [Example 575] |  | > 9.00 | > 9.00 |  | 
COC(=O)N[C@H](C(=O)N1CCC[C@H]1c1ncc(-c2ccc3nc(-c4ccc5nc([C@@H]6CC7(CC7)CN6C(=O)[C@@H](NC(=O)OC)C(C)C)[nH]c5c4)cnc3c2)[nH]1)C(C)C [Example 643] | 10.27 | > 9.00 |  |  | 
COC(=O)N[C@H](C(=O)N1CC2(CC2)C[C@H]1c1nc(-c2ccc(-c3ccc4[nH]c([C@@H]5CC6(CC6)CN5C(=O)[C@@H](NC(=O)OC)C(C)C)nc4c3)cc2)c[nH]1)C(C)C [Example 640] | 10.52 | 8.00 to 9.00 |  |  | 
COC(=O)N[C@H](C(=O)N1CC2(CC2)C[C@H]1c1ncc(-c2ccc(C#Cc3ccc4nc([C@@H]5C[C@@]6(CCCOC6)CN5C(=O)[C@@H](NC(=O)OC)C(C)C)[nH]c4c3)cc2)[nH]1)C(C)C [Example 638] | 11.15 | > 9.00 |  |  | 
COC(=O)N[C@H](C(=O)N1CCC[C@H]1c1nc(-c2ccc3nc(-c4ccc5[nH]c([C@@H]6CC7(CC7)CN6C(=O)[C@@H](NC(=O)OC)C(C)C)nc5c4)ccc3c2)c[nH]1)C(C)C [Example 574] | 10.44 |  |  | 9.90 | 
COC(=O)N[C@@H](C(=O)N1CC2(CC2)C[C@H]1c1ncc(-c2ccc(C#Cc3ccc4nc([C@@H]5CC6(CC6)CN5C(=O)[C@H](NC(=O)OC)c5ccccc5)[nH]c4c3)cc2)[nH]1)c1ccccc1 [Example 645] | 11.30 | > 9.00 |  |  | 
COC(=O)N[C@H](C(=O)N1CCC[C@H]1c1nc(-c2ccc(C#Cc3ccc4[nH]c([C@@H]5C[C@@]6(CCCO6)CN5C(=O)[C@@H](NC(=O)OC)C(C)C)nc4c3)cc2)c[nH]1)C(C)C [Example 551] | 10.89 | > 9.00 |  |  | 
COC(=O)NCCCC[C@H](NC(=O)OC)C(=O)N1CCC[C@H]1c1nc(-c2ccc(C#Cc3ccc4[nH]c([C@@H]5CC6(CC6)CN5C(=O)[C@@H](NC(=O)OC)C(C)C)nc4c3)cc2)c[nH]1 [Example 693] |  | > 9.00 | > 9.00 |  | 
